According to article PMC5218480 (PLoS ONE, 2017):

Tested on: MV-4-11 cells
Assay: Gene expression microarray analysis (Affymetrix PrimeView) and GSEA
Type: cell-based, human
Parameters: RFU PODN (11730768_x_at) / Fold change /veh PODN (11730768_x_at) / RFU LINC00158 (11744669_a_at) / Fold change /veh LINC00158 (11744669_a_at) / RFU DUSP10 (11751237_a_at) / Fold change /veh DUSP10 (11751237_a_at) / RFU ID3 (11757404_x_at) / Fold change /veh ID3 (11757404_x_at) / RFU PLEKHG5 (11737974_s_at) / Fold change /veh PLEKHG5 (11737974_s_at) / RFU LRRC4B (11730491_at) / Fold change /veh LRRC4B (11730491_at) / RFU GIMAP4 (11747438_a_at) / Fold change /veh GIMAP4 (11747438_a_at) / RFU KRT8 (11758183_x_at) / Fold change /veh KRT8 (11758183_x_at) / RFU CNN1 (11734310_a_at) / Fold change /veh CNN1 (11734310_a_at) / RFU VPS37D (11726825_at) / Fold change /veh VPS37D (11726825_at) / RFU C10orf10 (11716522_x_at) / Fold change /veh C10orf10 (11716522_x_at) / RFU KIR2DL2 /// KIR2DL4 /// KIR2DL5A /// KIR2DL5B /// KIR2DS1 /// KIR2DS2 /// KIR2DS3 /// KIR2DS4 /// KIR3DL3 /// KIR3DL3 /// KIR3DS1 (11738374_at) / Fold change /veh KIR2DL2 /// KIR2DL4 /// KIR2DL5A /// KIR2DL5B /// KIR2DS1 /// KIR2DS2 /// KIR2DS3 /// KIR2DS4 /// KIR3DL3 /// KIR3DL3 /// KIR3DS1 (11738374_at) / RFU C1QL1 (11718748_at) / Fold change /veh C1QL1 (11718748_at) / RFU TMPRSS4 (11747572_a_at) / Fold change /veh TMPRSS4 (11747572_a_at) / RFU HAMP (11756126_x_at) / Fold change /veh HAMP (11756126_x_at) / RFU RNFT2 (11725882_a_at) / Fold change /veh RNFT2 (11725882_a_at) / RFU NR4A2 (11747474_a_at) / Fold change /veh NR4A2 (11747474_a_at) / RFU ABCC12 (11746883_a_at) / Fold change /veh ABCC12 (11746883_a_at) / RFU TMEM136 (11760407_x_at) / Fold change /veh TMEM136 (11760407_x_at) / RFU CLDN22 /// WWC2 (11732394_at) / Fold change /veh CLDN22 /// WWC2 (11732394_at) / RFU HLA-DPB1 (11760878_x_at) / Fold change /veh HLA-DPB1 (11760878_x_at) / RFU SPINT1 (11716480_a_at) / Fold change /veh SPINT1 (11716480_a_at) / RFU GAP43 (11754022_s_at) / Fold change /veh GAP43 (11754022_s_at) / RFU A4GNT (11735810_at) / Fold change /veh A4GNT (11735810_at) / RFU PRB3 (11715151_x_at) / Fold change /veh PRB3 (11715151_x_at) / RFU TUBB4B (11761932_at) / Fold change /veh TUBB4B (11761932_at) / RFU CAPN14 (11732068_a_at) / Fold change /veh CAPN14 (11732068_a_at) / RFU TMCC2 (11721928_a_at) / Fold change /veh TMCC2 (11721928_a_at) / RFU IRGQ (11745062_a_at) / Fold change /veh IRGQ (11745062_a_at) / RFU FAM174B (11720279_a_at) / Fold change /veh FAM174B (11720279_a_at) / RFU TMPRSS4 (11748680_a_at) / Fold change /veh TMPRSS4 (11748680_a_at) / RFU FAM212B (11763350_a_at) / Fold change /veh FAM212B (11763350_a_at) / RFU PLEKHG5 (11743358_a_at) / Fold change /veh PLEKHG5 (11743358_a_at) / RFU ZSCAN30 (11745921_a_at) / Fold change /veh ZSCAN30 (11745921_a_at) / RFU CMKLR1 (11741424_a_at) / Fold change /veh CMKLR1 (11741424_a_at) / RFU LOC101060620 /// MAPK8IP1 (11723275_at) / Fold change /veh LOC101060620 /// MAPK8IP1 (11723275_at) / RFU SPTSSB (11747773_x_at) / Fold change /veh SPTSSB (11747773_x_at) / RFU PRSS12 (11739890_at) / Fold change /veh PRSS12 (11739890_at) / RFU BIN1 (11741810_x_at) / Fold change /veh BIN1 (11741810_x_at) / RFU WNT11 (11732464_a_at) / Fold change /veh WNT11 (11732464_a_at) / RFU C10orf10 (11716521_a_at) / Fold change /veh C10orf10 (11716521_a_at) / RFU C5orf56 (11738089_at) / Fold change /veh C5orf56 (11738089_at) / RFU CYB561 (11721691_x_at) / Fold change /veh CYB561 (11721691_x_at) / RFU ANKRD19P (11752326_a_at) / Fold change /veh ANKRD19P (11752326_a_at) / RFU OR2T12 /// OR2T33 /// OR2T8 (11738714_s_at) / Fold change /veh OR2T12 /// OR2T33 /// OR2T8 (11738714_s_at) / RFU VCAN (11748164_a_at) / Fold change /veh VCAN (11748164_a_at) / RFU JSRP1 (11732532_at) / Fold change /veh JSRP1 (11732532_at) / RFU KRTAP10-11 (11738290_x_at) / Fold change /veh KRTAP10-11 (11738290_x_at) / RFU MYO3A (11730013_a_at) / Fold change /veh MYO3A (11730013_a_at) / RFU EBF3 (11725865_a_at) / Fold change /veh EBF3 (11725865_a_at) / RFU CAMK2N1 (11719241_x_at) / Fold change /veh CAMK2N1 (11719241_x_at) / RFU C5orf56 (11738088_a_at) / Fold change /veh C5orf56 (11738088_a_at) / RFU OLFML3 (11715873_a_at) / Fold change /veh OLFML3 (11715873_a_at) / RFU LOC100653217 /// NTM (11731650_a_at) / Fold change /veh LOC100653217 /// NTM (11731650_a_at) / RFU MAPK11 (11762145_a_at) / Fold change /veh MAPK11 (11762145_a_at) / RFU FIZ1 (11724087_x_at) / Fold change /veh FIZ1 (11724087_x_at) / RFU OASL (11726364_x_at) / Fold change /veh OASL (11726364_x_at) / RFU SOX15 (11748057_x_at) / Fold change /veh SOX15 (11748057_x_at) / RFU CD79A (11719716_a_at) / Fold change /veh CD79A (11719716_a_at) / RFU HIST1H1D (11736915_at) / Fold change /veh HIST1H1D (11736915_at) / RFU CASKIN2 (11723855_a_at) / Fold change /veh CASKIN2 (11723855_a_at) / RFU LOC730098 (11760151_x_at) / Fold change /veh LOC730098 (11760151_x_at) / RFU OR4N2 (11742367_at) / Fold change /veh OR4N2 (11742367_at) / RFU PRRT2 (11749266_a_at) / Fold change /veh PRRT2 (11749266_a_at) / RFU SNX32 (11753110_a_at) / Fold change /veh SNX32 (11753110_a_at) / RFU CDHR5 (11726645_a_at) / Fold change /veh CDHR5 (11726645_a_at) / RFU RCAN1 (11760418_a_at) / Fold change /veh RCAN1 (11760418_a_at) / RFU FAM167A (11723789_a_at) / Fold change /veh FAM167A (11723789_a_at) / RFU FAM26E (11764081_at) / Fold change /veh FAM26E (11764081_at) / RFU ISYNA1 (11749810_s_at) / Fold change /veh ISYNA1 (11749810_s_at) / RFU ACY1 (11761880_at) / Fold change /veh ACY1 (11761880_at) / RFU 11764098_at / Fold change /veh 11764098_at / RFU SAMD14 (11745864_x_at) / Fold change /veh SAMD14 (11745864_x_at) / RFU NPB (11741838_a_at) / Fold change /veh NPB (11741838_a_at) / RFU TMPRSS6 (11731388_a_at) / Fold change /veh TMPRSS6 (11731388_a_at) / RFU KRTAP10-2 (11738614_at) / Fold change /veh KRTAP10-2 (11738614_at) / RFU ARHGAP8 /// PRR5-ARHGAP8 (11727945_x_at) / Fold change /veh ARHGAP8 /// PRR5-ARHGAP8 (11727945_x_at) / RFU KRTAP5-7 /// NADSYN1 (11734609_at) / Fold change /veh KRTAP5-7 /// NADSYN1 (11734609_at) / RFU RASL12 (11751679_a_at) / Fold change /veh RASL12 (11751679_a_at) / RFU CDKN2B (11736163_a_at) / Fold change /veh CDKN2B (11736163_a_at) / RFU PRF1 (11729649_at) / Fold change /veh PRF1 (11729649_at) / RFU, ZNF638 /// ZNF638-IT1 / Fold change vs veh, ZNF638 /// ZNF638-IT1 / RFU, PANK3 / Fold change vs veh, PANK3 / RFU, SH3YL1 / Fold change vs veh, SH3YL1 / RFU, ZEB2 / Fold change vs veh, ZEB2 / RFU, NRIP1 / Fold change vs veh, NRIP1 / RFU, PTTG1IP / Fold change vs veh, PTTG1IP / RFU, CAPN2 / Fold change vs veh, CAPN2 / RFU, MED14 / Fold change vs veh, MED14 / RFU, SNORA58 / Fold change vs veh, SNORA58 / RFU, C1orf63 / Fold change vs veh, C1orf63 / RFU, LRRFIP1 / Fold change vs veh, LRRFIP1 / RFU, NDUFAF7 / Fold change vs veh, NDUFAF7 / RFU, SLC12A2 / Fold change vs veh, SLC12A2 / RFU, IBTK / Fold change vs veh, IBTK / RFU, ESF1 / Fold change vs veh, ESF1 / Fold change vs veh, TMEM50B / RFU, TAOK1 / Fold change vs veh, TAOK1 / RFU, ACBD3 / Fold change vs veh, ACBD3 / RFU, TMA16 / Fold change vs veh, TMA16 / RFU, RWDD3 / Fold change vs veh, RWDD3 / RFU, BCAT1 / Fold change vs veh, BCAT1 / RFU, EDEM3 / Fold change vs veh, EDEM3 / RFU, TMEM33 / Fold change vs veh, TMEM33 / RFU, WDR75 / Fold change vs veh, WDR75 / RFU, AHCTF1 / Fold change vs veh, AHCTF1 / RFU, TFRC / Fold change vs veh, TFRC / RFU, ZDHHC17 / Fold change vs veh, ZDHHC17 / RFU, NOM1 / Fold change vs veh, NOM1 / RFU, ARL8B / Fold change vs veh, ARL8B / RFU, ZBTB11 / Fold change vs veh, ZBTB11 / RFU, TAMM41 / Fold change vs veh, TAMM41 / RFU, KIAA1704 /// LOC100996395 / Fold change vs veh, KIAA1704 /// LOC100996395 / RFU, ING1 / Fold change vs veh, ING1 / RFU, TRMT61B / Fold change vs veh, TRMT61B / RFU, FUBP3 / Fold change vs veh, FUBP3 / RFU, TP53 / Fold change vs veh, TP53 / RFU, TNKS2 / Fold change vs veh, TNKS2 / RFU, ZFP14 / Fold change vs veh, ZFP14 / RFU, ACTR2 / Fold change vs veh, ACTR2 / RFU, PPP3R1 / Fold change vs veh, PPP3R1 / RFU, PIK3R1 / Fold change vs veh, PIK3R1 / RFU, HNRNPA1 / Fold change vs veh, HNRNPA1 / RFU, RNF170 / Fold change vs veh, RNF170 / RFU, ZNF28 / Fold change vs veh, ZNF28 / RFU, RNGTT / Fold change vs veh, RNGTT / RFU, OGT / Fold change vs veh, OGT / RFU, BRD1 / Fold change vs veh, BRD1 / RFU, MARS / Fold change vs veh, MARS / RFU, ZNF655 / Fold change vs veh, ZNF655 / RFU, FAHD1 / Fold change vs veh, FAHD1 / RFU, BDP1 / Fold change vs veh, BDP1 / RFU, LRRCC1 / Fold change vs veh, LRRCC1 / RFU, ARID1A / Fold change vs veh, ARID1A / RFU, ZNF146 / Fold change vs veh, ZNF146 / RFU, ZNF330 / Fold change vs veh, ZNF330 / RFU, GPN3 / Fold change vs veh, GPN3 / RFU, C9orf123 / Fold change vs veh, C9orf123 / RFU, N4BP2L2 / Fold change vs veh, N4BP2L2 / RFU, ARFIP1 / Fold change vs veh, ARFIP1 / RFU, FAM179B / Fold change vs veh, FAM179B / RFU, BCL10 / Fold change vs veh, BCL10 / RFU, UHRF1BP1L / Fold change vs veh, UHRF1BP1L / RFU, BET1 / Fold change vs veh, BET1 / RFU, CNOT2 / Fold change vs veh, CNOT2 / RFU, ZNF268 / Fold change vs veh, ZNF268 / Fold change vs veh, ZNF507 / RFU, DGCR2 / Fold change vs veh, DGCR2 / RFU, WDSUB1 / Fold change vs veh, WDSUB1 / Fold change vs veh, HSP90B1 /// MIR3652 / RFU, ADSS / Fold change vs veh, ADSS / RFU, GK / Fold change vs veh, GK / RFU, ZNF148 / Fold change vs veh, ZNF148 / RFU, TAF9 / Fold change vs veh, TAF9 / RFU, SLC1A5 / Fold change vs veh, SLC1A5 / RFU, SLMO2 / Fold change vs veh, SLMO2 / RFU, ABCC4 / Fold change vs veh, ABCC4 / RFU, LOC101060439 /// RAP1B / Fold change vs veh, LOC101060439 /// RAP1B / RFU, RFX7 / Fold change vs veh, RFX7 / RFU, GTPBP10 / Fold change vs veh, GTPBP10 / RFU, CNEP1R1 / Fold change vs veh, CNEP1R1 / RFU, BIVM-ERCC5 /// ERCC5 / Fold change vs veh, BIVM-ERCC5 /// ERCC5 / RFU, ILF3 / Fold change vs veh, ILF3 / RFU 11762660_at / Fold change /veh 11762660_at / RFU VCAN (11757783_s_at) / Fold change /veh VCAN (11757783_s_at) / RFU DDX43 (11728927_at) / Fold change /veh DDX43 (11728927_at) / RFU KRT8 (11758188_x_at) / Fold change /veh KRT8 (11758188_x_at) / RFU NKD1 (11759106_at) / Fold change /veh NKD1 (11759106_at) / RFU SRD5A1 (11742802_a_at) / Fold change /veh SRD5A1 (11742802_a_at) / RFU TPSAB1 /// TPSB2 (11721975_s_at) / Fold change /veh TPSAB1 /// TPSB2 (11721975_s_at) / RFU GSTM3 (11746129_a_at) / Fold change /veh GSTM3 (11746129_a_at) / RFU IL23R (11737362_x_at) / Fold change /veh IL23R (11737362_x_at) / RFU TMEM51 (11727254_a_at) / Fold change /veh TMEM51 (11727254_a_at) / RFU PIWIL2 (11732686_x_at) / Fold change /veh PIWIL2 (11732686_x_at) / RFU ORM1 (11744905_x_at) / Fold change /veh ORM1 (11744905_x_at) / RFU CCDC152 (11743942_at) / Fold change /veh CCDC152 (11743942_at) / RFU ECM1 (11717891_a_at) / Fold change /veh ECM1 (11717891_a_at) / RFU IL23R (11748794_a_at) / Fold change /veh IL23R (11748794_a_at) / RFU TNFAIP8L3 (11732012_x_at) / Fold change /veh TNFAIP8L3 (11732012_x_at) / RFU MBOAT4 (11741988_at) / Fold change /veh MBOAT4 (11741988_at) / RFU 11764193_at / Fold change /veh 11764193_at / RFU TMEM53 (11763286_at) / Fold change /veh TMEM53 (11763286_at) / RFU MAGEB2 (11727129_at) / Fold change /veh MAGEB2 (11727129_at) / RFU TMEM200A (11744735_a_at) / Fold change /veh TMEM200A (11744735_a_at) / RFU CCDC152 (11751479_a_at) / Fold change /veh CCDC152 (11751479_a_at) / RFU FAM211A (11726209_a_at) / Fold change /veh FAM211A (11726209_a_at) / RFU RGS16 (11746705_a_at) / Fold change /veh RGS16 (11746705_a_at) / RFU VCAN (11755009_s_at) / Fold change /veh VCAN (11755009_s_at) / RFU RHOB (11743442_s_at) / Fold change /veh RHOB (11743442_s_at) / RFU RGS16 (11720943_a_at) / Fold change /veh RGS16 (11720943_a_at) / RFU RGS16 (11720944_at) / Fold change /veh RGS16 (11720944_at) / RFU, VPS4B / Fold change vs veh, VPS4B / RFU, CREB1 / Fold change vs veh, CREB1 / RFU, DNAJC13 / Fold change vs veh, DNAJC13 / RFU, GNAQ / Fold change vs veh, GNAQ / RFU, CDK5R1 / Fold change vs veh, CDK5R1 / RFU, ZRANB3 / Fold change vs veh, ZRANB3 / RFU, CUL4A / Fold change vs veh, CUL4A / RFU, CCNY / Fold change vs veh, CCNY / RFU, UFL1 / Fold change vs veh, UFL1 / RFU, COG3 / Fold change vs veh, COG3 / RFU, DIAPH2 / Fold change vs veh, DIAPH2 / RFU, SKA2 / Fold change vs veh, SKA2 / RFU, AFF3 / Fold change vs veh, AFF3 / RFU, LMF1 / Fold change vs veh, LMF1 / RFU, IPO11 / Fold change vs veh, IPO11 / RFU, DFFB / Fold change vs veh, DFFB / RFU, FOXP1 / Fold change vs veh, FOXP1 / RFU, CARD8 / Fold change vs veh, CARD8 / RFU, STRN3 / Fold change vs veh, STRN3 / RFU, ADK / Fold change vs veh, ADK / RFU, RASSF2 / Fold change vs veh, RASSF2 / RFU, WIPF1 / Fold change vs veh, WIPF1 / RFU, LARP1B / Fold change vs veh, LARP1B / RFU, RASA1 / Fold change vs veh, RASA1 / RFU, RB1 / Fold change vs veh, RB1 / RFU, PPFIA1 / Fold change vs veh, PPFIA1 / RFU, MAT2A / Fold change vs veh, MAT2A / RFU, CCT5 / Fold change vs veh, CCT5 / RFU, WDR92 / Fold change vs veh, WDR92 / RFU, CUX1 / Fold change vs veh, CUX1 / RFU, TTC7A / Fold change vs veh, TTC7A / RFU, TMEM135 / Fold change vs veh, TMEM135 / RFU, DEPTOR / Fold change vs veh, DEPTOR / RFU, CPM / Fold change vs veh, CPM / RFU, DNAJB6 / Fold change vs veh, DNAJB6 / RFU, CACNA2D3 / Fold change vs veh, CACNA2D3 / RFU, DTX4 / Fold change vs veh, DTX4 / RFU, TFCP2 / Fold change vs veh, TFCP2 / RFU, GMCL1 /// GMCL1P1 / Fold change vs veh, GMCL1 /// GMCL1P1 / RFU, AEBP2 / Fold change vs veh, AEBP2 / RFU, SNHG1 /// SNORD22 /// SNORD25 /// SNORD26 /// SNORD27 /// SNORD28 /// SNORD29 /// SNORD31 / Fold change vs veh, SNHG1 /// SNORD22 /// SNORD25 /// SNORD26 /// SNORD27 /// SNORD28 /// SNORD29 /// SNORD31 / Fold change (Aza/veh), C12orf56 (ProbeSet 11735607_a_at) / Fold change (ACY-1035/veh), C12orf56 (ProbeSet 11735607_a_at) / Fold change (Aza/veh), FGFR1OP (ProbeSet 11751329_s_at) / Fold change (ACY-1035/veh), FGFR1OP (ProbeSet 11751329_s_at) / Fold change (Aza/veh), VPS36 (ProbeSet 11739960_a_at) / Fold change (ACY-1035/veh), VPS36 (ProbeSet 11739960_a_at) / RFU SYPL1 (11715823_x_at) / Fold change /veh SYPL1 (11715823_x_at) / RFU IGFBP7 (11715501_s_at) / Fold change /veh IGFBP7 (11715501_s_at) / RFU REEP3 (11722064_at) / Fold change /veh REEP3 (11722064_at) / RFU IGLL1 (11728026_x_at) / Fold change /veh IGLL1 (11728026_x_at): dose or concentration left out as unconfirmed
Details: MV-4-11 cells, 48 hours

## Nc1ncn([C@@H]2O[C@H](CO)[C@@H](O)[C@H]2O)c(=O)n1 [azacitidine]
  Fold change /veh FAM174B (11720279_a_at): 1.12
